Assays:
[1] = system: apomorphine-induced vomiting; experiment: Effect on apomorphine-induced vomiting; assay type: in vivo; settings: Canis lupus familiaris, po, 2 hours prior to apomorphine hydrochloride (0.1 mg/kg, s.c.); incidence of vomiting checked for 2 hours; beagle dogs
Description: (1) Effect on apomorphine-induced vomiting
The test was performed according to the method described by M. Nakanishi et al: in "Arzneimittel-Forschung", vol. 21, 391 ff (1971).
Groups of 5-10 beagle dogs of both sexes each were used. The test compound was administered orally 2 hours prior to the treatment with apomorphine hydrochloride (0.1 mg/kg, s.c.). The incidence of vomiting was checked for 2 hours, and the ED50 (50% effective dose) was determined.

[2] = Cataleptogenic activity; settings: rat, in vivo, ip; Wistar female rats; from total points of the maximum appearance of catatonia
Description: (2) Cataleptogenic Activity
The test was performed according to the method described by W. Wirth et al. in "Archives Internationales de Pharmacodynamie et de Therapie", vol, 115, 1 ff (1958).
Groups of 5 Wistar female rats each were used. […] The ED50 was determined from total points of the maximum appearance of catatonia.

## Cl.Cl.O.O=C1NC2CCCCN2C12CCN(CCCN1c3ccccc3CCc3ccccc31)CC2 (centres unmarked) [A, 1'-[3-(10,11-dihydro-5H-dibenz[b,f]azepin-5-yl)propyl]-1,2,3,5,6,7,8,8a-octahydro-2-oxo-imidazo[1,2-a]pyridine-3-spiro-4'-piperidine dihydrochloride monohydrate]
[1]
  ED50: 2.5 mg/kg
[2]
  ED50: > 50 mg/kg

## Cl.Cl.O.O=C1NC2CCCCN2C12CCN(CCCN1c3ccccc3CCc3ccc(Cl)cc31)CC2 (centres unmarked) [B, 1'-[3-(3-chloro-10,11-dihydro-5H-dibenz[b,f]azepin-5-yl)propyl]-1,2,3,5,6,7,8,8a-octahydro-2-oxo-imidazo[1,2-a]pyridine-3-spiro-4'-piperidine dihydrochloride monohydrate]
[1]
  ED50: 0.5 mg/kg
[2]
  ED50: > 50 mg/kg

## Cl.Cl.O.O=C1N=C2CCCCN2C12CCN(CCCN1c3ccccc3CCc3ccccc31)CC2 [C, 1'-[3-(10,11-dihydro-5H-dibenz[b,f]azepin-5-yl)propyl]-2,3,5,6,7,8-hexahydro-2-oxo-imidazo[1,2-a]pyridine-3-spiro-4'-piperidine dihydrochloride monohydrate]
[1]
  ED50: 2 mg/kg
[2]
  ED50: > 50 mg/kg

## CN(C)CCCN1c2ccccc2Sc2ccc(Cl)cc21 [Chlorpromazine, reference compound]
[1]
  ED50: 5.1 mg/kg
[2]
  ED50: 12 mg/kg

Reference: patent EP0073845B1, “Imidazopyridine-spiro-piperidine compounds” (Yoshitomi Pharmaceutical Industries, Ltd., priority 1981, dated 1983)
